From US6479490B2, “3-indolyl-4-phenyl-1H-pyrrole-2,5-dione derivatives as inhibitors of glycogen synthase kinase-3β” (Syntex (U.S.A.) LLC, priority 2000, dated 2002)
Counter-ions that a name gives are not always drawn.

Tested on: not given
Assay: not given
Details: not given

| Structure (SMILES) | melting point |
| --- | --- |
| Cn1cc(C2=C(c3ccccc3OCC3COC(C)(C)O3)C(=O)NC2=O)c2ccccc21 (racemic) [Compound I-2, 3-(1-methylindol-3-yl)-4-[2-((RS)-2,2-dimethyl-1,3-dioxolan-4-ylmethyloxy)phenyl]-1H-pyrrole-2,5-dione] | 220.8 to 221.2 °C |
| Cn1cc(C2=C(c3ccc(OCC(O)CO)cc3)C(=O)NC2=O)c2ccccc21 (stereo in doubt) [IV-6, 3-(1-methylindol-3-yl)-4-{4-[((R)-2-hydroxy-2-hydroxymethyl)ethyloxy]-phenyl}-1H-pyrrole-2,5-dione] | 220.3 to 222.7 °C |
| CC(O)CCNc1ccc(C2=C(c3cn(C)c4ccccc34)C(=O)NC2=O)cc1 (centres unmarked) [IV-4] | 58 to 61.5 °C |
| Cn1cc(C2=C(c3cccc(OC[C@H](O)CO)c3)C(=O)NC2=O)c2ccccc21 [II-3, 3-(1-methylindol-3-yl)-4-{3-[((R)-2-hydroxy-2-hydroxymethyl)ethyloxy]phenyl}-1H-pyrrole-2,5-dione] | 177.7 to 178 °C |
| Cn1cc(C2=C(c3cccc(OCC(O)CO)c3)C(=O)NC2=O)c2ccccc21 (stereo in doubt) [II-5, 3-(1-methylindol-3-yl)-4-{3-[((S)-2-hydroxy-2-hydroxymethyl)ethyloxy]-phenyl]-1H-pyrrole-2,5-dione] | 176.9 to 178.1 °C |
| Cn1cc(C2=C(c3cccc(N4CCC(O)CC4)c3)C(=O)NC2=O)c2ccccc21 [II-29, 3-[3-(4-hydroxypiperidin-1-yl)phenyl]-4-(1-methyl-1H-indol-3-yl)-1H-pyrrole-2,5-dione] | 136 to 141 °C |
| Cn1cc(C2=C(c3ccccc3OCC(O)CO)C(=O)NC2=O)c2ccccc21 (centres unmarked) [Compound I-1, 3-(1-methylindol-3-yl)-4-{2-[(-2-hydroxy-2-hydroxymethyl)ethyloxy]-phenyl}-1H-pyrrole-2,5-dione] | 245 to 247.1 °C |
| Cn1cc(C2=C(c3cccc(OCCCO)c3)C(=O)NC2=O)c2ccccc21 [II-20] | 150.2 to 152.6 °C |
| Cn1cc(C2=C(c3cccc(OCC4COC(C)(C)O4)c3)C(=O)NC2=O)c2ccccc21 (stereo in doubt) [II-6, 3-(1-methylindol-3-yl)-4-[3-((R)-2,2-dimethyl-1,3-dioxolan-4-ylmethyloxy)phenyl]-1H-pyrrole-2,5-dione] | 220.8 to 221.2 °C |
| Cn1cc(C2=C(c3cccc(NCC(O)CO)c3)C(=O)NC2=O)c2ccccc21 (racemic) [II-9, 3-(1-methylindol-3-yl)-4-{3-[(2-(RS)-hydroxy-2-hydroxymethyl)ethylamino]phenyl}-1H-pyrrole-2,5-dione] | 160 to 163.5 °C |
| Cn1cc(C2=C(c3cccc(NCCCO[Si](C)(C)C(C)(C)C)c3)C(=O)NC2=O)c2ccccc21 | 58 to 65 °C |
| Cn1cc(C2=C(c3cccc(NCCO)c3)C(=O)NC2=O)c2ccccc21 (as salt: hydrochloride) [II-19, 3-(1-methylindol-3-yl)4-[3-(2-hydroxyethylamino)phenyl]-1H-pyrrole-2,5-dione] | 170.3 to 170.6 °C |
| Cn1cc(C2=C(c3cccc(OC[C@H]4COC(C)(C)O4)c3)C(=O)NC2=O)c2ccccc21 [II-7, 3-(1-methylindol-3-yl)-4-[3-((S)-2,2-dimethyl-1,3-dioxolan-4-ylmethyloxy)phenyl]-1H-pyrrole-2,5-dione] | 186.8 to 187.4 °C |
| Cn1cc(C2=C(c3cccc(OCCN4CCOCC4)c3)C(=O)NC2=O)c2ccccc21 [II-4, 3-(1-methylindol-3-yl)-4-[3-(2-morpholin-4-ylethyloxy)phenyl]-1H-pyrrole-2,5-dione] | 197.7 to 199 °C |
| CC(CO)Nc1cccc(C2=C(c3cn(C)c4ccccc34)C(=O)NC2=O)c1 (racemic) [II-22, 3-(1-methylindol-3-yl)-4-[3-(2-hydroxy-1-methylethylamino)phenyl]-1H-pyrrole-2,5-dione] | 203.1 to 205.8 °C |
| Cn1cc(C2=C(c3cccc(N4CCOCC4)c3)C(=O)NC2=O)c2ccccc21 (as salt: hydrochloride) [II-15, 3-(1-methylindol-3-yl)-4-(3-morpholin-4-ylphenyl)-1H-pyrrole-2,5-dione hydrochloride] | 205.3 to 212.6 °C |
| O=C1NC(=O)C(c2cn(CCCO)c3ccc(F)cc23)=C1c1cccc(NCC(O)CO)c1 (racemic) [III-6, 3-{3-[(2,3-dihydroxypropyl)amino]phenyl}-4-[5-fluoro-1-(3-hydroxypropyl)-1H-indol-3-yl]-1H-pyrrole-2,5-dione] | 118 to 125 °C |
| Cn1cc(C2=C(c3cccc(OCCN)c3)C(=O)NC2=O)c2ccccc21 (as salt: hydrochloride) [II-1, 3-(1-methylindol-3-yl)-4-[3-(2-aminoethyloxy)phenyl]-1H-pyrrole-2,5-dione] | 182.4 to 187 °C |
| Cn1cc(C2=C(c3cccc(NC4COC(C)(C)OC4)c3)C(=O)NC2=O)c2ccccc21 [II-10, 3-(1-methylindol-3-yl)-4-[3-(2,2-dimethyl-1,3-dioxan-5-ylamino)phenyl]-1H-pyrrole-2,5-dione] | 201 to 203 °C |
| Cn1cc(C2=C(c3cccc(OCCCO[Si](C)(C)C(C)(C)C)c3)C(=O)NC2=O)c2ccccc21 | 151.2 to 151.7 °C |

Target: T1, truncated form of recombinant rabbit GSK-3β enzyme (Oryctolagus cuniculus, UniProt G1T8E2)
T1 construct: The construct was cloned in pGEX-3X vector; fused on or other part: GST tag at the N-terminus, inferred from the pGEX-3X vector and the glutathione sepharose 4B purification with glutathione elution
T1 sequence (G1T8E2 1-432): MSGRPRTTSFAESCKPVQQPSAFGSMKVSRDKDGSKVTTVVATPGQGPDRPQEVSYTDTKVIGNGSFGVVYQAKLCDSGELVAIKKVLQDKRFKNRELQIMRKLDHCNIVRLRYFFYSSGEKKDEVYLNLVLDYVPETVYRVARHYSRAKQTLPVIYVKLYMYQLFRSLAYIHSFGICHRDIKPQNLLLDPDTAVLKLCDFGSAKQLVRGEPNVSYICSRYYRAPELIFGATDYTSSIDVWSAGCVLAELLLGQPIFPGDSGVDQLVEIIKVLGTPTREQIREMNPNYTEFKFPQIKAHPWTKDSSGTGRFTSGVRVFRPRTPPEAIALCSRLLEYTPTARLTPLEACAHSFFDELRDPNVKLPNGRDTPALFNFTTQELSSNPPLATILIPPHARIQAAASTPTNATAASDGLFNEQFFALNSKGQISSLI
Assay: Inhibition of Glycogen Synthase Kinase-3β, in vitro assay
Type: biochemical
Details: GSK-3β inhibition, 40 μM ATP, CREB-peptide substrate, 30° C. for 1 h
Procedure: The in vitro GSK-3β inhibitory activity of compounds of this invention was determined with a truncated form of recombinant rabbit GSK-3β enzyme.
The construct was cloned in pGEX-3X vector according to the procedure described in Wang, Q. M. et al., J. Biol. Chem. 269, 14566-14574 (1994). Ten amino acids at the N-terminus were deleted to obtain constitutively active GSK-3β ((see Murai H. et al., FEBS Lett. 392,153-60, (1996)). GSK-3β was expressed in BL21 DE3 cells. The cells were grown at 37° C. until they reached mid log phase and then induced with isopropyl-beta-(D)-thiogalactopyranoside (final concentration 0.4 mM) at 30° C. for 2 h. The cells were homogenized and the cell extract was loaded on a glutathione sepharose 4B column. GSK-3β was eluted with glutathione buffer (50 mM Tris pH 8 and 10 mM reduced glutathione). The eluate was collected in 3 minute fractions and assayed for GSK-3β content on a 10% SDS PAGE (polyacrylamide gel electrophoresis). Fractions above 20% peak height were pooled, aliquoted, and stored at −80° C. until used.
The GSK-3β […] was performed in 50 μl reactions in a 96 well polypropylene plate, each reaction containing 20 mM magnesium chloride, 40 μM ATP, 2 mM DTT, 88.5 μM biotinylated and phosphorylated CREB-peptide substrate (biotin-[…](PO4)YR-OH, see Wang, Q. M. et al., J. Biol. Chem. 269, 14566-14574 (1994)), [γ-^33P] ATP (1 μCi), and 2 μl of compounds of this invention in DMSO (various concentrations). 15 μl of GSK-3β (various concentrations) was added and the reaction mixture was incubated at 30° C. for 1 h. The reaction was stopped by transferring 25 μl of the reaction mixture to a phosphocellulose plate containing 130 μl of 1.85% phosphoric acid. The free radionucleotides in the membrane were washed off under vacuum with 1.85% phosphoric acid (5 times). After the last wash, the plate was transferred to an adoptor plate and 50 μl of scintillation cocktail (Microscint-20, Packard, cat. #20-133) was added to each well and the amount of radioactivity was counted in a top counter.

| Structure (SMILES) | IC50 |
| --- | --- |
| Cn1cc(C2=C(c3cccc(OCCN)c3)C(=O)NC2=O)c2ccccc21 [II-1, 3-(1-methylindol-3-yl)-4-[3-(2-aminoethyloxy)phenyl]-1H-pyrrole-2,5-dione] | 20 nM |
| Cn1cc(C2=C(c3ccccc3OCC(O)CO)C(=O)NC2=O)c2ccccc21 (centres unmarked) [Compound I-1, 3-(1-methylindol-3-yl)-4-{2-[(-2-hydroxy-2-hydroxymethyl)ethyloxy]-phenyl}-1H-pyrrole-2,5-dione] | 194 nM |
| O=C1NC(=O)C(c2c[nH]c3ccccc23)=C1c1cccc(OCCN2CCOCC2)c1 [III-3, 3-(1H-indol-3-yl)-4-[3-(2-morpholin-4-ylethoxy)phenyl]-1H-pyrrole-2,5-dione] | 230 nM |
| Cn1cc(C2=C(c3cccc(OCCN4CCOCC4)c3)C(=O)NC2=O)c2ccccc21 [II-4, 3-(1-methylindol-3-yl)-4-[3-(2-morpholin-4-ylethyloxy)phenyl]-1H-pyrrole-2,5-dione] | 29.6 nM |
| Cn1cc(C2=C(c3ccc(OC[C@@H]4COC(C)(C)O4)cc3)C(=O)NC2=O)c2ccccc21 [IV-1, 3-(1-methylindol-3-yl)-4-[4-((R)-2,2-dimethyl-1,3-dioxolan-4-ylmethyloxy)phenyl]-1H-pyrrole-2,5-dione] | 133 nM |
| Cn1cc(C2=C(c3cccc(OCCCN)c3)C(=O)NC2=O)c2ccccc21 [II-2, 3-(1-methylindol-3-yl)-4-[3-(3-aminopropyloxy)phenyl]-1H-pyrrole-2,5-dione] | 26.4 nM |
